Test results published in patent publication US20230085307A1, “PYRIDAZINONE COMPOUND AND HERBICIDE” (NISSAN CHEMICAL CORPORATION, priority 2019, published 2023).

What was measured:
[1] = tested on: late watergrass; test: Test Example 1: herbicidal activity, application before weed generation under submerged conditions (Table 16, symbol A); assay type: in vivo, late watergrass (Echinochloa oryzicola)
From the text: (§1) [Test Example 1] Herbicidal Activity Test by Application before Weed Generation under Submerged Conditions After alluvial soil was placed into 1/10000 are of Wagner pot, water was poured and mixed to form a submerged condition having a water depth of 4 cm. Seeds of late watergrass, Japanese bulrush, and oval-leafed pondweed were sowed in a mixed manner in the aforementioned pot, and then 2.5 leaf stage rice plant seedlings were transplanted thereto. On the day of sowing seeds, the emulsion agent of the compound of the present invention prepared according to Formulation Example 2 was diluted with water so as to achieve a predetermined herbicide amount, and the diluted emulsion agent was applied to the surface of the water. The pot was placed in a greenhouse at 25° C. to 30° C. for growth of the plants. Three weeks after the herbicide application, the effect of the herbicide on each plant was evaluated according to the following criteria. Evaluation Criteria 5: Herbicidal rate of 90% or more (almost completely withered) 4: Herbicidal rate of 70% or more and less than 90% 3: Herbicidal rate of 40% or more and less than 70% 2: Herbicidal rate of 20% or more and less than 40% 1: Herbicidal rate of 5% or more and less than 20% 0: Herbicidal rate of 5% or less (almost no effect)

[2] = tested on: wild oat; test: Test Example 4: herbicidal effect by soil treatment (Table 19, symbol I); assay type: in vivo, wild oat (Avena fatua); conditions: amount of applied herbicide 320 g/ha
Summary of the method: (§2)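 Pre-emergence style soil spray: seeds under ~1.5 cm sterilized diluvial soil received a uniform coat of emulsion diluted to the predetermined herbicide amount. Greenhouse 25–30° C; readout at week three on previously defined criteria.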

[3] = tested on: persian speedwell; test: Test Example 5: herbicidal effect by foliage application, plastic box (Table 20, symbol R); assay type: in vivo, Persian speedwell (Veronica persica); conditions: foliage application, 320 g/ha, three weeks after application
Summary of the method: (§3)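 Plants were sown into sterilized diluvial soil under about 1.5 cm cover and kept in a greenhouse at 25° C. to 30° C. Fourteen days on, foliage received an even spray of the diluted emulsion. Herbicidal or crop effect was judged three weeks afterwards.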

[4] = tested on: redroot pigweed; test: Test Example 5: herbicidal effect by foliage application, plastic box (Table 20, symbol N); assay type: in vivo, redroot pigweed (Amaranthus retroflexus); conditions: foliage application, 320 g/ha, three weeks after application
Summary of the method: as §3

[5] = tested on: southern crabgrass; test: Test Example 4: herbicidal effect by soil treatment (Table 19, symbol F); assay type: in vivo, southern crabgrass (Digitaria ciliaris); conditions: amount of applied herbicide 320 g/ha
Summary of the method: as §2

[6] = tested on: green foxtail; test: Test Example 4: herbicidal effect by soil treatment (Table 19, symbol G); assay type: in vivo, green foxtail (Setaria viridis); conditions: amount of applied herbicide 320 g/ha
Summary of the method: as §2

[7] = tested on: green foxtail; test: Test Example 5: herbicidal effect by foliage application, plastic box (Table 20, symbol G); assay type: in vivo, green foxtail (Setaria viridis); conditions: foliage application, 320 g/ha, three weeks after application
Summary of the method: as §3

[8] = tested on: lambsquarters; test: Test Example 5: herbicidal effect by foliage application, plastic box (Table 20, symbol O); assay type: in vivo, lambsquarters (Chenopodium album); conditions: foliage application, 320 g/ha, three weeks after application
Summary of the method: as §3

[9] = tested on: lambsquarters; test: Test Example 4: herbicidal effect by soil treatment (Table 19, symbol O); assay type: in vivo, lambsquarters (Chenopodium album); conditions: amount of applied herbicide 320 g/ha
Summary of the method: as §2

[10] = tested on: southern crabgrass; test: Test Example 5: herbicidal effect by foliage application, plastic box (Table 20, symbol F); assay type: in vivo, southern crabgrass (Digitaria ciliaris); conditions: foliage application, 320 g/ha, three weeks after application
Summary of the method: as §3

[11] = tested on: chickweed; test: Test Example 4: herbicidal effect by soil treatment (Table 19, symbol P); assay type: in vivo, common chickweed (Stellaria media); conditions: amount of applied herbicide 320 g/ha
Summary of the method: as §2

[12] = tested on: windgrass; test: Test Example 4: herbicidal effect by soil treatment (Table 19, symbol L); assay type: in vivo, windgrass (Apera spica-venti); conditions: amount of applied herbicide 320 g/ha
Summary of the method: as §2

[13] = tested on: barnyard grass; test: Test Example 4: herbicidal effect by soil treatment (Table 19, symbol H); assay type: in vivo, barnyard grass (Echinochloa crus-galli); conditions: amount of applied herbicide 320 g/ha
Summary of the method: as §2

[14] = tested on: barnyard grass; test: Test Example 5: herbicidal effect by foliage application, plastic box (Table 20, symbol H); assay type: in vivo, barnyard grass (Echinochloa crus-galli); conditions: foliage application, 320 g/ha, three weeks after application
Summary of the method: as §3

[15] = tested on: blackgrass; test: Test Example 5: herbicidal effect by foliage application, plastic box (Table 20, symbol J); assay type: in vivo, blackgrass (Alopecurus myosuroides); conditions: foliage application, 320 g/ha, three weeks after application
Summary of the method: as §3

[16] = tested on: rice flat sedge; test: Test Example 3: herbicidal effect by foliage application, Wagner pot (Table 18, symbol E); assay type: in vivo, rice flat sedge (Cyperus iria)
Summary of the method: (§4)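 Plants were sown in alluvial soil held under 0.1–0.5 cm standing water and grown 14 days in a greenhouse at 25–30 °C. An emulsifiable formulation, water-diluted to the set dose, was then sprayed onto the foliage, and effects were scored three weeks later using previously defined criteria.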

[17] = tested on: Italian ryegrass; test: Test Example 5: herbicidal effect by foliage application, plastic box (Table 20, symbol K); assay type: in vivo, Italian ryegrass (Lolium multiflorum); conditions: foliage application, 320 g/ha, three weeks after application
Summary of the method: as §3

[18] = tested on: barnyard grass; test: Test Example 3: herbicidal effect by foliage application, Wagner pot (Table 18, symbol H); assay type: in vivo, barnyard grass (Echinochloa crus-galli)
Summary of the method: as §4

[19] = tested on: Italian ryegrass; test: Test Example 4: herbicidal effect by soil treatment (Table 19, symbol K); assay type: in vivo, Italian ryegrass (Lolium multiflorum); conditions: amount of applied herbicide 320 g/ha
Summary of the method: as §2

[20] = tested on: Japanese bulrush; test: Test Example 1: herbicidal activity, application before weed generation under submerged conditions (Table 16, symbol B); assay type: in vivo, Japanese bulrush (Schoenoplectus juncoides)
From the text: as §1

[21] = tested on: redroot pigweed; test: Test Example 4: herbicidal effect by soil treatment (Table 19, symbol N); assay type: in vivo, redroot pigweed (Amaranthus retroflexus); conditions: amount of applied herbicide 320 g/ha
Summary of the method: as §2

[22] = tested on: persian speedwell; test: Test Example 4: herbicidal effect by soil treatment (Table 19, symbol R); assay type: in vivo, Persian speedwell (Veronica persica); conditions: amount of applied herbicide 320 g/ha
Summary of the method: as §2

[23] = tested on: blackgrass; test: Test Example 4: herbicidal effect by soil treatment (Table 19, symbol J); assay type: in vivo, blackgrass (Alopecurus myosuroides); conditions: amount of applied herbicide 320 g/ha
Summary of the method: as §2

[24] = tested on: wild oat; test: Test Example 5: herbicidal effect by foliage application, plastic box (Table 20, symbol I); assay type: in vivo, wild oat (Avena fatua); conditions: foliage application, 320 g/ha, three weeks after application
Summary of the method: as §3

[25] = tested on: windgrass; test: Test Example 5: herbicidal effect by foliage application, plastic box (Table 20, symbol L); assay type: in vivo, windgrass (Apera spica-venti); conditions: foliage application, 320 g/ha, three weeks after application
Summary of the method: as §3

[26] = tested on: velvetleaf; test: Test Example 5: herbicidal effect by foliage application, plastic box (Table 20, symbol M); assay type: in vivo, velvetleaf (Abutilon theophrasti); conditions: foliage application, 320 g/ha, three weeks after application
Summary of the method: as §3

[27] = tested on: chickweed; test: Test Example 5: herbicidal effect by foliage application, plastic box (Table 20, symbol P); assay type: in vivo, common chickweed (Stellaria media); conditions: foliage application, 320 g/ha, three weeks after application
Summary of the method: as §3

[28] = tested on: velvetleaf; test: Test Example 4: herbicidal effect by soil treatment (Table 19, symbol M); assay type: in vivo, velvetleaf (Abutilon theophrasti); conditions: amount of applied herbicide 320 g/ha
Summary of the method: as §2

[29] = tested on: Chinese sprangletop; test: Test Example 3: herbicidal effect by foliage application, Wagner pot (Table 18, symbol D); assay type: in vivo, chinese sprangletop (Leptochloa chinensis)
Summary of the method: as §4

[30] = tested on: oval-leafed pondweed; test: Test Example 1: herbicidal activity, application before weed generation under submerged conditions (Table 16, symbol C); assay type: in vivo, oval-leafed pondweed (Monochoria vaginalis); conditions: 320 g/ha applied herbicide
From the text: as §1

[31] = amount of applied herbicide 320 g/ha

COc1ccccc1-c1sc2cc(OS(=O)(=O)N(C)C)ccc2c1-c1c(O)c(C)nn(C)c1=O [3-134]
Herbicidal effect, A: late watergrass [1, 31]: 3 (Herbicidal rate of 40% or more and less than 70%)
Herbicidal effect by soil treatment, I: wild oat [2]: 0 (Herbicidal rate of 5% or less (almost no effect))
R: persian speedwell, herbicidal effect grade [3]: 5 (Herbicidal rate of 90% or more (almost completely withered))
N: redroot pigweed, herbicidal effect grade [4]: 4 (Herbicidal rate of 70% or more and less than 90%)
Herbicidal effect by soil treatment, F: southern crabgrass [5]: 0 (Herbicidal rate of 5% or less (almost no effect))
Herbicidal effect by soil treatment, G: green foxtail [6]: 0 (Herbicidal rate of 5% or less (almost no effect))
G: green foxtail, herbicidal effect grade [7]: 3 (Herbicidal rate of 40% or more and less than 70%)
O: lambsquarters, herbicidal effect grade [8]: 3 (Herbicidal rate of 40% or more and less than 70%)
Herbicidal effect by soil treatment, O: lambsquarters [9]: 3 (Herbicidal rate of 40% or more and less than 70%)
F: southern crabgrass, herbicidal effect grade [10]: 4 (Herbicidal rate of 70% or more and less than 90%)
Herbicidal effect by soil treatment, P: chickweed [11]: 1 (Herbicidal rate of 5% or more and less than 20%)
Herbicidal effect by soil treatment, L: windgrass [12]: 5 (Herbicidal rate of 90% or more (almost completely withered))
Herbicidal effect by soil treatment, H: barnyard grass [13]: 0 (Herbicidal rate of 5% or less (almost no effect))
H: barnyard grass, herbicidal effect grade [14]: 0 (Herbicidal rate of 5% or less (almost no effect))
J: blackgrass, herbicidal effect grade [15]: 4 (Herbicidal rate of 70% or more and less than 90%)
herbicidal effect on rice flat sedge (E) ([16]; 320 g/ha): 3 (Herbicidal rate of 40% or more and less than 70%)
K: Italian ryegrass, herbicidal effect grade [17]: 4 (Herbicidal rate of 70% or more and less than 90%)
herbicidal effect on barnyard grass (H) ([18]; 320 g/ha): 3 (Herbicidal rate of 40% or more and less than 70%)
Herbicidal effect by soil treatment, K: Italian ryegrass [19]: 4 (Herbicidal rate of 70% or more and less than 90%)
Herbicidal effect, B: Japanese bulrush [20, 31]: 4 (Herbicidal rate of 70% or more and less than 90%)
Herbicidal effect by soil treatment, N: redroot pigweed [21]: 5 (Herbicidal rate of 90% or more (almost completely withered))
Herbicidal effect by soil treatment, R: persian speedwell [22]: 3 (Herbicidal rate of 40% or more and less than 70%)
Herbicidal effect by soil treatment, J: blackgrass [23]: 4 (Herbicidal rate of 70% or more and less than 90%)
I: wild oat, herbicidal effect grade [24]: 2 (Herbicidal rate of 20% or more and less than 40%)
L: windgrass, herbicidal effect grade [25]: 5 (Herbicidal rate of 90% or more (almost completely withered))
M: velvetleaf, herbicidal effect grade [26]: 3 (Herbicidal rate of 40% or more and less than 70%)
P: chickweed, herbicidal effect grade [27]: 5 (Herbicidal rate of 90% or more (almost completely withered))
Herbicidal effect by soil treatment, M: velvetleaf [28]: 1 (Herbicidal rate of 5% or more and less than 20%)
herbicidal effect on Chinese sprangletop (D) ([29]; 320 g/ha): 4 (Herbicidal rate of 70% or more and less than 90%)

CC[S+]([O-])Cc1ccc(-c2sc3ccc(F)cc3c2-c2c(O)c(C)nn(C)c2=O)cc1 (centres unmarked) [2-333]
Herbicidal effect on A: late watergrass (grade 0-5) ([1]; 320 g/ha applied herbicide): 2 (Herbicidal rate of 20% or more and less than 40%)
Herbicidal effect on C: oval-leafed pondweed (grade 0-5) [30]: 0 (Herbicidal rate of 5% or less (almost no effect))
herbicidal effect on E: rice flat sedge [16, 31]: 5 (Herbicidal rate of 90% or more (almost completely withered))
herbicidal effect on H: barnyard grass [18, 31]: 5 (Herbicidal rate of 90% or more (almost completely withered))
Herbicidal effect on B: Japanese bulrush (grade 0-5) ([20]; 320 g/ha applied herbicide): 0 (Herbicidal rate of 5% or less (almost no effect))
herbicidal effect on D: Chinese sprangletop [29, 31]: 2 (Herbicidal rate of 20% or more and less than 40%)
